According to PMC7997032, “Organic synthesis and anti-influenza A virus activity of cyclobakuchiols A, B, C, and D” (PLoS ONE, 2021):
“And” between values parts separate entries of the source, which are not always exact repeats. Equal values may be shown once.

System: myxovirus-resistant protein 1 (Mx1)
Assay: RT-qPCR of Mx1 mRNA in MDCK cells with or without A/PR/8/34 virus
Assay type: cell-based, canine
Conditions: for MDCK Mx1 mRNA, ave / MDCK Mx1 mRNA, individual replicates: 12.5uM, relative to virus - DMSO; for MDCK Mx1 mRNA, ave: ave of #1-3 exp; for MDCK Mx1 mRNA, individual replicates: replicates 1-3 of #1, #2, #3 exp

Structure (SMILES)	mRNA level of Mx1 compared with 4 or 5-treatment	MDCK Mx1 mRNA, ave (virus +)	MDCK Mx1 mRNA, ave (virus -)	other results
C=C[C@@](C)(/C=C/c1ccc(O)cc1)CCC=C(C)C [(+)-(S)-bakuchiol, reference compound]	significantly reduced	1.1334	0.4419	virus-induced upregulation of Mx1 mRNA: significantly reduced; MDCK Mx1 mRNA, individual replicates (virus +): 0.2413 and 1.8944 and 2.953 and 2.445 and 0.9019 and 0.5846 and 0.6126 and 0.2532 and 0.315; MDCK Mx1 mRNA, individual replicates (virus -): 0.2755 and 0.4409 and 0.4188 and 0.4047 and 0.5819 and 0.4639 and 0.4949 and 0.4956 and 0.401
C=C[C@]1(C)CCC(C(C)(C)O)C(c2ccc(O)cc2)C1 (stereo in doubt) [cyclobakuchiol D]		4.805	1.431	MDCK Mx1 mRNA, individual replicates (virus +, listed as Cyclobakuchiol D): 0.823 and 8.732 and 6.853 and 11.4737 and 5.421 and 3.904 and 4.71 and 0.7737 and 0.5563; MDCK Mx1 mRNA, individual replicates (virus -, listed as Cyclobakuchiol D): 1.033 and 1.181 and 1.602 and 1.158 and 2.885 and 1.4873 and 1.3014 and 1.1198 and 1.11
C=C[C@]1(C)CCC(C(C)(C)O)C(c2ccc(O)cc2)C1 (stereo in doubt) [cyclobakuchiol C]		4.111	1.049	MDCK Mx1 mRNA, individual replicates (virus +, listed as Cyclobakuchiol C): 0.595 and 6.605 and 6.273 and 8.3748 and 5.332 and 3.973 and 4.3945 and 0.841 and 0.6149; MDCK Mx1 mRNA, individual replicates (virus -, listed as Cyclobakuchiol C): 0.8391 and 0.8734 and 1.094 and 0.9606 and 1.231 and 1.129 and 1.257 and 1.188 and 0.8673
C=C[C@]1(C)CCC(C(=C)C)C(c2ccc(O)cc2)C1 (stereo in doubt) [cyclobakuchiol B]		2.462	0.5972	MDCK Mx1 mRNA, individual replicates (virus +, listed as Cyclobakuchiol B): 0.2997 and 4.213 and 3.979 and 5.553 and 2.777 and 2.185 and 2.395 and 0.2998 and 0.4603; MDCK Mx1 mRNA, individual replicates (virus -, listed as Cyclobakuchiol B): 0.4518 and 0.5333 and 0.4418 and 0.5841 and 1.295 and 0.3791 and 0.8214 and 0.4024 and 0.4657
C=C[C@]1(C)CCC(C(=C)C)C(c2ccc(O)cc2)C1 (stereo in doubt) [cyclobakuchiol A]	significantly reduced	1.207	0.4356	MDCK Mx1 mRNA, individual replicates (virus +, listed as Cyclobakuchiol A): 0.2527 and 2.463 and 2.156 and 2.352 and 0.9916 and 0.8981 and 0.9472 and 0.4146 and 0.3917; MDCK Mx1 mRNA, individual replicates (virus -, listed as Cyclobakuchiol A): 0.3455 and 0.4424 and 0.367 and 0.3469 and 0.4512 and 0.4646 and 0.7257 and 0.3943 and 0.3827
